Source: patent US20130130175A1, “Compound for Photoacid Generator, Resist Composition Using the Same, and Pattern-Forming Method” (CENTRAL GLASS COMPANY, LIMITED, priority 2007, published 2013)
Like-named read-outs stand apart in the source and are kept apart here.

Experiment: Solubility in propylene glycol methyl ether acetate
Format: physicochemical
From the text: 1.0 g of sodium 2-(1′-adamantane)carbonyloxy-1,1-difluoroethanesulfonate synthesized in Synthesis Example 8 was weighed and added to 100 g of propylene glycol methyl ether acetate, followed by stirring.
1.0 g of sodium 2-(3′-hydroxy-1′-adamantane)carbonyloxy-1,1-difluoroethanesulfonate synthesized in Synthesis Example 11 was weighed and added to 100 g of propylene glycol methyl ether acetate, followed by stirring.

Solubility (1.0 g added to 100 g of propylene glycol methyl ether acetate, stirring)	SMILES	Solubility
–	O=C(OCC(F)(F)S(=O)(=O)O)C12CC3CC(CC(C3)C1)C2 [Synthesis Example 8, triphenylsulfonium 2-(1′-adamantane)carbonyloxy-1,1-difluoroethanesulfonate]	completely dissolved
completely dissolved	O=C(OCC(F)(F)S(=O)(=O)O)C12CC3CC(CC(O)(C3)C1)C2 [Synthesis Example 11, triphenylsulfonium 2-(3′-hydroxy-1′-adamantane)carbonyloxy-1,1-difluoroethanesulfonate]	–
